What was measured:
Type in all cases: in vivo
[1] = tested on: Stellaria media; test: Example B1 herbicidal action, post-emergence, seed trays in climatic chamber (score 10=total damage to plant, 0=no damage to plant); settings: Application post-emergence, 1000 g/ha, evaluated after 9 days
Description: (§1) Seeds of a variety of test species were sown in sterilised standard soil in seed trays each having 96 cells. After cultivation for 8 to 9 days cultivation (post-emergence) under controlled conditions in a climatic chamber (cultivation at 23/17° C., day/night; 13 hours light; 50-60% humidity), the plants were treated with an aqueous spray solution of 1000 mg/l of the active ingredient dissolved in 10% DMSO (dimethyl sulfoxide, CAS RN 67-68-5) as a solvent, equivalent to 1000 g/ha. The plants were grown in the climatic chamber after application at (24/19° C., day/night; 13 hours light; 50-60% humidity) and watered twice daily. After 9 days until the test was evaluated (10=total damage to plant, 0=no damage to plant)

[2] = tested on: Nasturtium officinale; test: as above; settings: Application post-emergence, 1000 g/ha, evaluated after 9 days
Description: as §1

[3] = tested on: Solanum nigrum; test: as above; settings: Application post-emergence, 1000 g/ha, evaluated after 9 days
Description: as §1

[4] = tested on: Amaranthus retroflexus; test: as above; settings: Application post-emergence, 1000 g/ha, evaluated after 9 days
Description: as §1

[5] = tested on: Echinochloa crus-galli; test: Example B2 herbicidal action, post-emergence, pots in glasshouse, evaluated after 13 days (10=total damage to plant; 0=no damage to plant); settings: rate 1000 g/ha
Description: (§2) Seeds of a variety of test species were sown in standard soil in pots. After 8 days cultivation (post-emergence) under controlled conditions in a glasshouse (at 24/16° C., day/night; 14 hours light; 65% humidity), the plants were sprayed with an aqueous spray solution derived from the formulation of the technical active ingredient in acetone/water (50:50) solution containing 0.5% Tween 20 (polyoxyethelyene sorbitan monolaurate, CAS RN 9005-64-5). The test plants were then grown in a glasshouse under controlled conditions in a glasshouse (at 24/16° C., day/night; 14 hours light; 65% humidity) and watered twice daily. After 13 days, the test was evaluated (10=total damage to plant; 0=no damage to plant).

[6] = tested on: Ipomea hederaceae; test: as above; settings: rate 1000 g/ha
Description: as §2

[7] = tested on: Setaria faberi; test: as above; settings: rate 1000 g/ha
Description: as §2

[8] = tested on: Solanum nigrum; test: as above; settings: rate 1000 g/ha
Description: as §2

[9] = tested on: Amaranthus retroflexus; test: as above; settings: rate 1000 g/ha
Description: as §2

SMILES	STEME (damage to plant) [1]	NAAOF (damage to plant) [2]	SOLNI (damage to plant) [3]	AMARE (damage to plant) [4]	ECHCG damage score (10=total damage to plant; 0=no damage to plant) [5]	IPOHE damage score (10=total damage to plant; 0=no damage to plant) [6]	SETFA damage score (10=total damage to plant; 0=no damage to plant) [7]	SOLNI damage score (10=total damage to plant; 0=no damage to plant) [8]	AMARE damage score (10=total damage to plant; 0=no damage to plant) [9]
CC(C)(C)C(=O)Oc1c(-c2c(F)ccc(F)c2Cl)c(=O)n(CCC(F)(F)C(F)(F)F)c2nccnc12 [C7]	0	0	3	0					
CC(C)(C)C(=O)Oc1c(-c2ccccc2OC(F)(F)F)c(=O)n(CCC(F)(F)F)c2nccnc12 [C2]	0	0	4	0					
CC(C)(C)C(=O)Oc1c(-c2c(F)ccc(F)c2Cl)c(=O)n(CC(F)F)c2nccnc12 [A2, 2,2-dimethyl-propionic acid 7-(2-chloro-3,6-difluoro-phenyl)-5-(2,2-difluoro-ethyl)-6-oxo-5,6-dihydro-pyrido[2,3-b]pyrazin-8-yl ester]	9	9	6	4					
CC(C)(C)C(=O)Oc1c(-c2cc(C(F)(F)F)ccc2C(F)(F)F)c(=O)n(CC(F)F)c2nccnc12 [A43]					8	9	9	9	10
CC(C)(C)C(=O)Oc1c(-c2c(F)ccc(F)c2Cl)c(=O)n(CC(F)(F)F)c2nccnc12 [C8, 2,2-dimethyl-propionic acid 7-(2-chloro-3,6-difluoro-phenyl)-5-(2,2,2-trifluoro-ethyl)-6-oxo-5,6-dihydro-pyrido[2,3-b]pyrazin-8-yl ester]					1	10	4	10	10
O=c1c(-c2c(F)ccc(Br)c2Cl)c(O)c2nccnc2n1CC(F)F [B6]					8	10	8	10	10
COc1ccc(OC(F)(F)F)cc1-c1c(OC(=O)C(C)(C)C)c2nccnc2n(CC(F)F)c1=O [A27]					7	7	7	9	9
CC(C)C(=O)Oc1c(-c2c(Cl)cccc2C(F)(F)F)c(=O)n(CC(F)F)c2nccnc12 [A41]					8	9	9	10	10
CC(C)C(=O)Oc1c(-c2cc(F)ccc2Cl)c(=O)n(CC(F)F)c2nccnc12 [A13]					8	10	9	10	10
O=c1c(-c2c(F)ccc([N+](=O)[O-])c2Cl)c(O)c2nccnc2n1CC(F)F [B9]					8	8	7	9	9
Cc1cc(C)c(-c2c(OC(=O)C(C)(C)C)c3nccnc3n(CC(F)F)c2=O)c(C)c1 [A25]					7	8	7	10	7
O=C1c2nccnc2N(CC(F)(F)F)C(=O)C1c1c(F)ccc(F)c1Cl (stereo not drawn) [D1]					5	10	6	10	10
